Common to all, as to assay type: physicochemical
A short description of series [1]: Photostability test with Suntester, HPLC analysis of UV filter mixtures. The method, then:
Photostability tests were carried out with a Suntester from Heräus. The irradiation intensity in these was 80 W/m^2, based on the UV range of 290-400 nm. The irradiation time was 4 h in total, the photodegradation of the UV filters being measured by HPLC analyses after an irradiation time of 2 and 4 h. The irradiations of the UV filter mixtures were carried out in an isopropyl myristate solution. The percentage values relate to the value measured without irradiation (decrease in the concentration).

Series [2] can be described thus: Solubility in cosmetic oils. As to conditions: per cent by weight. An excerpt: Examples of Solubility (In Per Cent By Weight)
(data in per cent by weight)

Series [3] in a line: UV absorption properties (extinction). Also on record: unit not given here. From the text:
EXAMPLES FOR THE PREPARATION AND THE ABSORPTION PROPERTIES

Where [4] appears, read: 2 h, Experiment 1: 3% OMC + 1% DMDBM + 2% A1 in isopropyl myristate.
The mark [5] stands for this setting: 2 h, Experiment 2: 3% OMC + 1% DMDBM + 2% A2 in isopropyl myristate.
Where [6] appears, read: 2 h, Experiment 3: 3% OMC + 1% DMDBM + 2% A3 in isopropyl myristate.
[7] abbreviates: 2 h, Experiment 4: 3% OMC + 1% DMDBM + 2% B1 in isopropyl myristate.
Setting [8] is: 2 h, Experiment 5: 3% OMC + 1% DMDBM + 2% B2 in isopropyl myristate.
Setting [9] is: 2 h, Experiment 6: 3% OMC + 1% DMDBM + 2% B3 in isopropyl myristate.
Where [10] appears, read: 2 h irradiation, 80 W/m2, reference mixture 3% OMC + 1% DMDBM in isopropyl myristate.
Where [11] appears, read: 4 h, Experiment 1: 3% OMC + 1% DMDBM + 2% A1 in isopropyl myristate.
Setting [12] is: 4 h, Experiment 2: 3% OMC + 1% DMDBM + 2% A2 in isopropyl myristate.
[13] abbreviates: 4 h, Experiment 3: 3% OMC + 1% DMDBM + 2% A3 in isopropyl myristate.
Where [14] appears, read: 4 h, Experiment 4: 3% OMC + 1% DMDBM + 2% B1 in isopropyl myristate.
[15] abbreviates: 4 h, Experiment 5: 3% OMC + 1% DMDBM + 2% B2 in isopropyl myristate.
[16] abbreviates: 4 h, Experiment 6: 3% OMC + 1% DMDBM + 2% B3 in isopropyl myristate.
Where [17] appears, read: 4 h irradiation, 80 W/m2, reference mixture 3% OMC + 1% DMDBM in isopropyl myristate.

Take `COc1ccc(C(=O)CC(=O)c2ccc(C(C)(C)C)cc2)cc1` [DMDBM, 4-dimethylethyl-4′-methoxydibenzoylmethane]: the “photodegradation (decrease in the concentration)” value is listed as 24% in series [1] (setting [4]); 20% in series [1] (setting [5]); 20% in series [1] (setting [6]); 27% in series [1] (setting [7]); 27% in series [1] (setting [8]); 27% in series [1] (setting [9]). Moreover, the “photodegradation (decrease in the concentration)” value in series [1] (setting [10]) was 67%; in series [1] (setting [11]), 38%; in series [1] (setting [12]) it was 28%; in series [1] (setting [13]), 28%; in series [1] (setting [14]), 48%; in series [1] (setting [15]), 60%. Moreover, the “photodegradation (decrease in the concentration)” value in series [1] (setting [16]) turned out to be 52%; in series [1] (setting [17]) it was 87%.

In the case of `COc1ccc(/C=C(/C(=O)OC(C)C)C(=O)c2ccccc2)cc1` [Example 1], in series [2], the “Solubility in Isopropyl myristate” value is listed as greater than 10%, the “Solubility in Miglyol -812” value is reported as greater than 10% and the “Solubility in Witconol-TN” value is recorded as greater than 10%. The compound also had an Extinction in series [3] (at 316 nm) of 640.

For `CCCOC(=O)/C(=C/c1ccc(OC)cc1)C(=O)c1ccccc1` [Example 2], in series [2], the “Solubility in Isopropyl myristate” value is given as greater than 10%, the “Solubility in Miglyol -812” value was greater than 10% and the “Solubility in Witconol-TN” value was greater than 10%. Also, the Extinction in series [3] (at 316 nm) was 660.

Regarding `COc1ccc(/C=C(/C(=O)OCC(C)C)C(=O)c2ccccc2)cc1` [Example 3], in series [2], the “Solubility in Isopropyl myristate” value is listed as greater than 20%, the “Solubility in Miglyol -812” value is reported as greater than 20% and the “Solubility in Witconol-TN” value was greater than 20%. Also, the Extinction in series [3] (at 316 nm) was 640.

`CCCCOC(=O)/C(=C/c1ccc(OC)cc1)C(=O)c1ccccc1` [Example 4]: the “photodegradation (decrease in the concentration)” value in series [1] (setting [4]) was determined as 0%. Besides, the “photodegradation (decrease in the concentration)” value in series [1] (setting [11]) is on record as 0%. Besides, the “photostability (in words)” value in series [1] (in mixture with OMC and DMDBM, compared with the comparison measurement) is reported as “outstanding photostability”. Besides, in series [2], the “Solubility in Isopropyl myristate” value is listed as greater than 20%, the “Solubility in Miglyol -812” value is given as greater than 20% and the “Solubility in Witconol-TN” value was greater than 20%. Besides, the Extinction in series [3] (at 316 nm) amounted to 660.

With `COc1ccc(/C=C(/C(=O)OCCC(C)C)C(=O)c2ccccc2)cc1` [Example 5], in series [2], the “Solubility in Isopropyl myristate” value is on record as greater than 20%, the “Solubility in Miglyol -812” value is greater than 20% and the “Solubility in Witconol-TN” value is greater than 20%. In addition, the Extinction in series [3] (at 316 nm) is 630.

As to `CCOC(=O)/C(=C/c1ccc(OC)cc1)C(=O)C1CCCCC1` [Example 6], the Extinction in series [3] (at 316 nm) is listed as 700.

Compound `CCOC(=O)/C(=C/c1ccc(C)cc1)C(=O)c1ccccc1` [Example 7] displayed an Extinction in series [3] (at 292 nm) of 690.

Turning to `COc1ccc(/C=C(/C(C)=O)C(=O)c2ccccc2)cc1` [Example 8], the Extinction in series [3] (at 323 nm, pure Z isomer) was found to be 816.

In the case of `CCOC(=O)/C(=C/c1ccc(OC)cc1)C(=O)c1ccc(C)cc1` [Example 9], the Extinction in series [3] (at 316 nm) was determined as 660.

`CCOC(=O)/C(=C/c1ccc(OC)cc1)C(=O)c1ccccc1` [Example A2]: the “photodegradation (decrease in the concentration)” value in series [1] (setting [6]) and in series [1] (setting [13]) was 0% throughout.

`COc1ccc(/C=C(/C(C)=O)C(=O)c2ccccc2)cc1` [Example A2]: the “photodegradation (decrease in the concentration)” value in series [1] (setting [5]) was found to be 3%. Also, the “photodegradation (decrease in the concentration)” value in series [1] (setting [12]) is on record as 3%. In addition, in series [2], the “Solubility in Isopropyl myristate” value was less than 10%, the “Solubility in Miglyol -812” value is listed as less than 10% and the “Solubility in Witconol-TN” value is listed as less than 10%.

Take `CCOC(=O)/C(=C/c1ccc(OC)cc1)C(=O)c1ccccc1` [Example A3]: in series [2], the “Solubility in Isopropyl myristate” value is greater than 20%, the “Solubility in Miglyol -812” value is on record as greater than 20% and the “Solubility in Witconol-TN” value was greater than 20%.

As for `CCOC(=O)C(=Cc1ccc(OC)cc1)C(=O)OCC` [Example B2], the entries for the “photodegradation (decrease in the concentration)” value in series [1] (setting [8]) and in series [1] (setting [15]) were 2% and 7%, respectively.

In the case of `COc1ccc(C=C(C(C)=O)C(C)=O)cc1` [Example B3], the results for the “photodegradation (decrease in the concentration)” value in series [1] (setting [9]) and in series [1] (setting [16]) were 0% and 8%, respectively.

Regarding `CCCCC(CC)COC(=O)C=Cc1ccc(OC)cc1` (stereo not drawn) [OMC, octyl methoxycinnamate], the “photodegradation (decrease in the concentration)” value worked out at 12% in series [1] (setting [4]); 12% in series [1] (setting [5]); 11% in series [1] (setting [6]); 11% in series [1] (setting [7]); 15% in series [1] (setting [8]); 13% in series [1] (setting [9]). Also, the “photodegradation (decrease in the concentration)” value is 58% in series [1] (setting [10]); 17% in series [1] (setting [11]); 17% in series [1] (setting [12]); 17% in series [1] (setting [13]); 18% in series [1] (setting [14]); 30% in series [1] (setting [15]). Also, the “photodegradation (decrease in the concentration)” value in series [1] (setting [16]) is on record as 25%; in series [1] (setting [17]), 76%.

The values above are taken from US20080050319A1, “Benzylidene-Alpha-Dicarbonyl Compounds as Novel Uv Absorbers” (SYMRISE GMBH & CO. KG, priority 2004, published 2008).
